This note sets out measurements from patent US12662479B2 (Foghorn Therapeutics Inc., priority 2020, dated 2026).

One experiment has as its target T1, HiBit-BRM fusion protein (Homo sapiens, UniProt P51531).
T1 construct: expressed in transfected cells
As to the kind of experiment: HiBiT-BRM cell-based degradation assay (Nano-Glo HiBiT Lytic Detection, 24 h). The note with it: HeLa cells expressing HiBiT-BRM; for DC50: read-out: BRM HiBit Degradation IC50; for BRM HiBit Degradation Maximum measured: top dose 30 μM. The protocol:
Procedure: A stable HeLa cell line expressing HiBiT-BRM was generated. On day 0, 5000 cells were seeded in 40 μL of media into each well of 384-well cell culture plates. On day 1, cells were treated with 120 nL DMSO or 120 nL of 3-fold serially DMSO-diluted compounds (10 points in duplicate with 30 μM as final top dose). Subsequently plates were incubated for 24 h in a standard tissue culture incubator and equilibrated at room temperature for 15 minutes. Nano-Glo HiBiT Lytic Detection System (Promega N3050) reagent was freshly prepared and 20 ul was added to each well. Upon addition of this LgBit-containing reagent, the HiBiT and LgBiT proteins associate to form the luminescent NanoBiT luciferase. The plates were shaken for 10 minutes at room temperature and the bioluminescence read using an EnVision plate reader (PerkinElmer).
(§1) The degradation % was calculated using the following formula: % degradation=100%−100%×(LumSample−LumLC)/(LumHC−LumLC). DMSO treated cells are employed as High Control (HC) and 2 μM of a known BRM/BRG1 degrader standard treated cells are employed as Low Control (LC).

Experiment [1] deals with T2, HiBit-BRG1 fusion protein (Homo sapiens, UniProt P51532).
T2 construct: expressed in transfected cells
As to the kind of experiment: HiBiT-BRG1 cell-based degradation assay (Nano-Glo HiBiT Lytic Detection, 24 h). The note with it: HeLa cells expressing HiBit-BRG1 and LgBit; for DC50: read-out: BRG1 HiBit Degradation IC50; for Dmax: HeLa, top dose 30 μM, read-out: BRG1 HiBit Degradation Maximum measured. The method, then: Procedure: A stable HeLa cell line expressing HiBiT-BRM was generated. On day 0, 5000 cells were seeded in 40 μL of media into each well of 384-well cell culture plates. […] Nano-Glo HiBiT Lytic Detection System (Promega N3050) reagent was freshly prepared and 20 ul was added to each well. Upon addition of this LgBit-containing reagent, the HiBiT and LgBiT proteins associate to form the luminescent NanoBiT luciferase. The plates were shaken for 10 minutes at room temperature and the bioluminescence read using an EnVision plate reader (PerkinElmer).
For measurement of BRG1 degradation, a stable HeLa cell line expressing HiBit-BRG1 and LgBit was generated. The same protocol as above was then followed.
as §1
A general note: HiBiT is a short tag that completes a luciferase, so light tracks the accessible tagged protein.

The structures appear in SMILES notation. Where only a bound is given, the exact number is not on record here.

T2 sequence (P51532 whole entry, the tested form may be a part): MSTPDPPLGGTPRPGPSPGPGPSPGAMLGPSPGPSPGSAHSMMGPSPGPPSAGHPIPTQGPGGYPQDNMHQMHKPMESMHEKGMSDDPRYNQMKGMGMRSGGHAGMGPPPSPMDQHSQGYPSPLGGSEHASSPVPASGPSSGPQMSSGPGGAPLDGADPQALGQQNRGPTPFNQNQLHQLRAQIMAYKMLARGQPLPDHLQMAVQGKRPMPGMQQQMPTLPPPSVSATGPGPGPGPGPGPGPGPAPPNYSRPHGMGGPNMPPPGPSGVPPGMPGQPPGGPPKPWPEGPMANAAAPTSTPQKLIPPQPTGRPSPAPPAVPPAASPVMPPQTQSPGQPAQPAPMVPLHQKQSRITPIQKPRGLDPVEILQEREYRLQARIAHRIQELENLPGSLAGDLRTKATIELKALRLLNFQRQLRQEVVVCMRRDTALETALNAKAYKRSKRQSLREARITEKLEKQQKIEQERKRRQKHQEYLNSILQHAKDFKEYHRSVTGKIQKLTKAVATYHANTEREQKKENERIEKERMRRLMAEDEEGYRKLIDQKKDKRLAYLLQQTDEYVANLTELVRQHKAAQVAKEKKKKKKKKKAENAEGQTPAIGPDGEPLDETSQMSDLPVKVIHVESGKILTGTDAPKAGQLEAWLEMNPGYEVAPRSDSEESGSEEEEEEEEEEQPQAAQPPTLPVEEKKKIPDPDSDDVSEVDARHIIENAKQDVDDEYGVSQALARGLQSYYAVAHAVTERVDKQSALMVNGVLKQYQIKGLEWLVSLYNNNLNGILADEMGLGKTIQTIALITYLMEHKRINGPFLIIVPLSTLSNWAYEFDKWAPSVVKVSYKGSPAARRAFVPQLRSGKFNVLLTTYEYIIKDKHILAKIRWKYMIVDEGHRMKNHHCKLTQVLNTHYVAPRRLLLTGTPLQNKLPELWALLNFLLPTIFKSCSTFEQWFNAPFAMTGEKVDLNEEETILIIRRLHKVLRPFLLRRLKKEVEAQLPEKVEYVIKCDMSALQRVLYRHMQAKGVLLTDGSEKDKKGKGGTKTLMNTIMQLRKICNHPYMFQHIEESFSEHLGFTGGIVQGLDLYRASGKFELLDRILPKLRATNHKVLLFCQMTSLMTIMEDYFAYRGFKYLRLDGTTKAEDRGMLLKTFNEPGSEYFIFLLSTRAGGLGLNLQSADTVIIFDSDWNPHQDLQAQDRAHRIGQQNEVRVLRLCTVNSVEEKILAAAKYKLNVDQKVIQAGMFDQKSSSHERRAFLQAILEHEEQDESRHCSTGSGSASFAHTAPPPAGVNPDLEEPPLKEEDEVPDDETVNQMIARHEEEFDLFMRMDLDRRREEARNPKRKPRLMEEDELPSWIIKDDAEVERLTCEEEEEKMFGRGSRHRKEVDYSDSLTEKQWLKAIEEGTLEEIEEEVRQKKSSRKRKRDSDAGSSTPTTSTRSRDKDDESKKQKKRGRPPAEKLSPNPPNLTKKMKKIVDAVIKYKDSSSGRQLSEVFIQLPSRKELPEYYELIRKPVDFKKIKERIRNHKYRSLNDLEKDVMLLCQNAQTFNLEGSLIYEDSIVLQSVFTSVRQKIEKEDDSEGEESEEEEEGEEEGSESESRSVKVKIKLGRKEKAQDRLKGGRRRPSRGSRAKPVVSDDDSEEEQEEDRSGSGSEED
T1 sequence (P51531 whole entry, the tested form may be a part): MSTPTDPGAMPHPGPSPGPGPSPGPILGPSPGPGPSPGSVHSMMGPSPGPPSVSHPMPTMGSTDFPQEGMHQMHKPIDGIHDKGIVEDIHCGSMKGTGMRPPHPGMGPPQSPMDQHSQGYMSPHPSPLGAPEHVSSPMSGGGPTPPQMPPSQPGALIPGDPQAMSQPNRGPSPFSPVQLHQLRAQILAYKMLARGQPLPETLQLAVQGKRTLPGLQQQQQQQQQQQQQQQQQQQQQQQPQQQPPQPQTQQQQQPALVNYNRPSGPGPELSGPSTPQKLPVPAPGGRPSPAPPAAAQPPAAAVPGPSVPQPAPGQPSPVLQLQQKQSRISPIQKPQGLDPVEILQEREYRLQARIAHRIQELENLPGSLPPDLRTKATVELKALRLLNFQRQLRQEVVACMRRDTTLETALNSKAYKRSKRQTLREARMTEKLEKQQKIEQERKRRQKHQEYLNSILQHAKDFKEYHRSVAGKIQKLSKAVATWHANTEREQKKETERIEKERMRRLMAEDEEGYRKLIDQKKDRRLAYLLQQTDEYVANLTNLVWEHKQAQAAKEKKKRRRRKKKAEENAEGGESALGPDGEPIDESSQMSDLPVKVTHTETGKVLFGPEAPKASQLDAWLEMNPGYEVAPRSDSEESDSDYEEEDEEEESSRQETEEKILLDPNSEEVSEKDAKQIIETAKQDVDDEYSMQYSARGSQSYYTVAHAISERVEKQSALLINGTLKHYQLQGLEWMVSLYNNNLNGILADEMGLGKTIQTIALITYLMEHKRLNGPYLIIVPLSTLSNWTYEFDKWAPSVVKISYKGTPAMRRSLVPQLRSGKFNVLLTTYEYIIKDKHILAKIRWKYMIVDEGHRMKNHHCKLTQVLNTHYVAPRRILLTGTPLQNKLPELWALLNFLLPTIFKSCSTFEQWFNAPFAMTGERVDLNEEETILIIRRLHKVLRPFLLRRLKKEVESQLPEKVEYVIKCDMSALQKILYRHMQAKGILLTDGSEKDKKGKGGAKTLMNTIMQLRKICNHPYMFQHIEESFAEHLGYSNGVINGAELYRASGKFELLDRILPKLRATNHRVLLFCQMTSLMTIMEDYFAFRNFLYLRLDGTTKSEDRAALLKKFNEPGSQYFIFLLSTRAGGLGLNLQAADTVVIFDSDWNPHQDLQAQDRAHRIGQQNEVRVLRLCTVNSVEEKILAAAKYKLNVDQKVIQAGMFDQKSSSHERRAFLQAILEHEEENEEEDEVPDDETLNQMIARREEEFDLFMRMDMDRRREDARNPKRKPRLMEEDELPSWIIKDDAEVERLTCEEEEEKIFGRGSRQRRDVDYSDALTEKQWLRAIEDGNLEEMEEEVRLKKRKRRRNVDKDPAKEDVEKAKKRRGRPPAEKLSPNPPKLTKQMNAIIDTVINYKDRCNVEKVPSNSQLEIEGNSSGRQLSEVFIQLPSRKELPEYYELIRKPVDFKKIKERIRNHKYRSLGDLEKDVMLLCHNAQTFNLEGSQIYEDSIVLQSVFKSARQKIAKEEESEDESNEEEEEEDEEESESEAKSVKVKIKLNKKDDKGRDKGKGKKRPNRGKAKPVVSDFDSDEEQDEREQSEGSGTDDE

In the case of `Cc1ncsc1-c1ccc(CNC(=O)[C@@H]2C[C@@H](O)CN2C(=O)[C@@H](NC(=O)CCOCCOCCC(=O)NCc2cccc(-c3cccc(-c4csc(NC(=O)CNC(=O)c5ccn(S(C)(=O)=O)c5)n4)c3)c2)C(C)(C)C)cc1` [Compound 1, N-(2-((4-(3′-((S)-14-((2S,4R)-4-hydroxy-2-((4-(4-methylthiazol-5-yl)benzyl)carbamoyl)pyrrolidine-1-carbonyl)-15,15-dimethyl-3,12-dioxo-6,9-dioxa-2,13-diazahexadecyl)-[1,1′-biphenyl]-3-yl)thiazol-2-yl)amino)-2-oxoethyl)-1-(methylsulfonyl)-1H-pyrrole-3-carboxamide], on HiBit-BRM fusion protein, the DC50 was 0.1 to 1 µM and the “BRM HiBit Degradation Maximum measured” value was “A (‘A’ = Maximum degradation >75%)”. In addition, in experiment [1], the DC50 was in the range of 0.1 to 1 µM and the Dmax was above 75%.
On to `CS(=O)(=O)n1ccc(C(=O)NCC(=O)Nc2nc(-c3cccc(-c4ccn(CC(=O)NCCCCCNc5cccc6c5C(=O)N(C5CCC(=O)NC5=O)C6=O)n4)c3)cs2)c1` (stereo not drawn) [Compound 2, N-[2-[[4-[3-[1-[2-[5-[[2-(2,6-dioxo-3-piperidyl)-1,3-dioxoisoindolin-4-yl]amino]pentylamino]-2-oxo-ethyl]pyrazol-3-yl]phenyl]thiazol-2-yl]amino]-2-oxo-ethyl]-1-methylsulfonylpyrrole-3-carboxamide], for which, at HiBit-BRM fusion protein, the DC50 is above 10 µM and the “BRM HiBit Degradation Maximum measured” value is “C (‘C’ = Maximum degradation <50%)”. In experiment [1], the DC50 is above 10 µM and the Dmax was below 50%.
Regarding `CS(=O)(=O)n1ccc(C(=O)NCC(=O)Nc2nc(-c3cccc(-c4ccn(CC(=O)NCCOCCOCCNc5cccc6c5C(=O)N(C5CCC(=O)NC5=O)C6=O)n4)c3)cs2)c1` (stereo not drawn) [Compound 3, N-[2-[[4-[3-[1-[2-[2-[2-[2-[[2-(2,6-dioxo-3-piperidyl)-1,3-dioxoisoindolin-4-yl]amino]ethoxy]ethoxy]ethylamino]-2-oxo-ethyl]pyrazol-3-yl]phenyl]thiazol-2-yl]amino]-2-oxo-ethyl]-1-methylsulfonyl-pyrrole-3-carboxamide], on HiBit-BRM fusion protein, the DC50 was above 10 µM and the “BRM HiBit Degradation Maximum measured” value is reported as “C (‘C’ = Maximum degradation <50%)”. In experiment [1], the DC50 was above 10 µM and the Dmax was below 50%.
Turning to `CS(=O)(=O)n1ccc(C(=O)NCC(=O)Nc2nc(-c3cccc(-c4ccn(CC(=O)N5CCC(C6CCN(C(=O)COc7cccc8c7C(=O)N(C7CCC(=O)NC7=O)C8=O)CC6)CC5)n4)c3)cs2)c1` (stereo not drawn) [Compound 4, N-[2-[[4-[3-[1-[2-[4-[1-[2-[2-(2,6-dioxo-3-piperidyl)-1,3-dioxoisoindolin-4-yl]oxyacetyl]-4-piperidyl]-1-piperidyl]-2-oxo-ethyl]pyrazol-3-yl]phenyl]thiazol-2-yl]amino]-2-oxo-ethyl]-1-methylsulfonyl-pyrrole-3-carboxamide], at HiBit-BRM fusion protein, the DC50 was above 10 µM and the “BRM HiBit Degradation Maximum measured” value is recorded as “C (‘C’ = Maximum degradation <50%)”. Also, in experiment [1], the DC50 is above 10 µM and the Dmax was below 50%.
Take `CS(=O)(=O)n1ccc(C(=O)NCC(=O)Nc2nc(-c3cccc(-c4ccn(CC(=O)NCCCCCCCCNC(=O)COc5cccc6c5C(=O)N(C5CCC(=O)NC5=O)C6=O)n4)c3)cs2)c1` (stereo not drawn) [Compound 5, N-[2-[[4-[3-[1-[2-[8-[[2-[2-(2,6-dioxo-3-piperidyl)-1,3-dioxoisoindolin-4-yl]oxyacetyl]amino]octylamino]-2-oxo-ethyl]pyrazol-3-yl]phenyl]thiazol-2-yl]amino]-2-oxo-ethyl]-1-methylsulfonyl-pyrrole-3-carboxamide]: at HiBit-BRM fusion protein, the DC50 is above 10 µM and the “BRM HiBit Degradation Maximum measured” value is listed as “C (‘C’ = Maximum degradation <50%)”. For the same molecule, in experiment [1], the DC50 was above 10 µM and the Dmax is below 50%.
As for `CC(C)(C(=O)NCCOCCOCCNc1cccc2c1C(=O)N(C1CCC(=O)NC1=O)C2=O)n1ccc(-c2cccc(-c3csc(NC(=O)CNC(=O)c4ccn(S(C)(=O)=O)c4)n3)c2)n1` (stereo not drawn) [Compound 6, N-(2-((4-(3-(1-(1-((2-(2-(2-((2-(2,6-dioxopiperidin-3-yl)-1,3-dioxoisoindolin-4-yl)amino)ethoxy)ethoxy)ethyl)amino)-2-methyl-1-oxopropan-2-yl)-1H-pyrazol-3-yl)phenyl)thiazol-2-yl)amino)-2-oxoethyl)-1-(methylsulfonyl)-1H-pyrrole-3-carboxamide], at HiBit-BRM fusion protein, the DC50 is above 10 µM and the “BRM HiBit Degradation Maximum measured” value was “C (‘C’ = Maximum degradation <50%)”. In experiment [1], the DC50 is above 10 µM and the Dmax is below 50%.
On to `CC(C)(C(=O)NCCCCCNc1cccc2c1C(=O)N(C1CCC(=O)NC1=O)C2=O)n1ccc(-c2cccc(-c3csc(NC(=O)CNC(=O)c4ccn(S(C)(=O)=O)c4)n3)c2)n1` (stereo not drawn) [Compound 7, N-[2-[[4-[3-[1-[2-[5-[[2-(2,6-dioxo-3-piperidyl)-1,3-dioxo-isoindolin-4-yl]amino]pentylamino]-1,1-dimethyl-2-oxo-ethyl]pyrazol-3-yl]phenyl]thiazol-2-yl]amino]-2-oxo-ethyl]-1-methylsulfonyl-pyrrole-3-carboxamide], for which, at HiBit-BRM fusion protein, the DC50 was above 10 µM and the “BRM HiBit Degradation Maximum measured” value is listed as “C (‘C’ = Maximum degradation <50%)”. In addition, in experiment [1], the DC50 was above 10 µM and the Dmax was below 50%.
For the molecule `CC(C)(C(=O)NCCCCCCCCNC(=O)COc1cccc2c1C(=O)N(C1CCC(=O)NC1=O)C2=O)n1ccc(-c2cccc(-c3csc(NC(=O)CNC(=O)c4ccn(S(C)(=O)=O)c4)n3)c2)n1` (stereo not drawn) [Compound 8, N-(2-((4-(3-(1-(1-((8-(2-((2-(2,6-dioxopiperidin-3-yl)-1,3-dioxoisoindolin-4-yl)oxy)acetamido)octyl)amino)-2-methyl-1-oxopropan-2-yl)-1H-pyrazol-3-yl)phenyl)thiazol-2-yl)amino)-2-oxoethyl)-1-(methylsulfonyl)-1H-pyrrole-3-carboxamide], on HiBit-BRM fusion protein, the DC50 is 0.1 to 1 µM; the “BRM HiBit Degradation Maximum measured” value is “B (‘B’ = Maximum degradation ≥50% and ≤75%)”. Further, in experiment [1], the DC50 was 0.1 to 1 µM and the Dmax lay in the range of 50 to 75%.
As to `CN(CC(=O)NCCOCCOCCNc1cccc2c1C(=O)N(C1CCC(=O)NC1=O)C2=O)c1cc(-c2cccc(-c3csc(NC(=O)CNC(=O)c4ccn(S(C)(=O)=O)c4)n3)c2)ccn1` (stereo not drawn) [Compound 9, N-(2-((4-(3-(2-((2-((2-(2-(2-((2-(2,6-dioxopiperidin-3-yl)-1,3-dioxoisoindolin-4-yl)amino)ethoxy)ethoxy)ethyl)amino)-2-oxoethyl)(methyl)amino)pyridin-4-yl)phenyl)thiazol-2-yl)amino)-2-oxoethyl)-1-(methylsulfonyl)-1H-pyrrole-3-carboxamide], on HiBit-BRM fusion protein, the DC50 is above 10 µM and the “BRM HiBit Degradation Maximum measured” value was “C (‘C’ = Maximum degradation <50%)”. Further, in experiment [1], the DC50 is above 10 µM and the Dmax was below 50%.
As to `CC(C)(C(=O)N1CCC(C2CCN(C(=O)COc3cccc4c3C(=O)N(C3CCC(=O)NC3=O)C4=O)CC2)CC1)n1ccc(-c2cccc(-c3csc(NC(=O)CNC(=O)c4ccn(S(C)(=O)=O)c4)n3)c2)n1` (stereo not drawn) [Compound 10, N-[2-[[4-[3-[1-[2-[4-[1-[2-[2-(2,6-dioxo-3-piperidyl)-1,3-dioxo-isoindolin-4-yl]oxyacetyl]-4-piperidyl]-1-piperidyl]-1,1-dimethyl-2-oxo-ethyl]pyrazol-3-yl]phenyl]thiazol-2-yl]amino]-2-oxo-ethyl]-1-methylsulfonylpyrrole-3-carboxamide], at HiBit-BRM fusion protein, the DC50 was above 10 µM and the “BRM HiBit Degradation Maximum measured” value was “C (‘C’ = Maximum degradation <50%)”. In experiment [1], the DC50 was above 10 µM and the Dmax was below 50%.
Regarding `CS(=O)(=O)n1ccc(C(=O)NCC(=O)Nc2nc(-c3cccc(-c4ccnc(C5(C(=O)NCCOCCOCCNc6cccc7c6C(=O)N(C6CCC(=O)NC6=O)C7=O)CC5)c4)c3)cs2)c1` (stereo not drawn) [Compound 11, N-[2-[[4-[3-[2-[1-[2-[2-[2-[[2-(2,6-dioxo-3-piperidyl)-1,3-dioxo-isoindolin-4-yl]amino]ethoxy]ethoxy]ethylcarbamoyl]cyclopropyl]-4-pyridyl]phenyl]thiazol-2-yl]amino]-2-oxo-ethyl]-1-methylsulfonylpyrrole-3-carboxamide], on HiBit-BRM fusion protein, the DC50 is above 10 µM and the “BRM HiBit Degradation Maximum measured” value is given as “C (‘C’ = Maximum degradation <50%)”. Also, in experiment [1], the DC50 is 1 to 10 µM and the Dmax was 50 to 75%.
With `Cc1ncsc1-c1ccc(CNC(=O)[C@@H]2C[C@@H](O)CN2C(=O)[C@@H](NC(=O)CCCCCCCCCCCC(=O)NCc2cccc(-c3cccc(-c4csc(NC(=O)CNC(=O)c5ccn(S(C)(=O)=O)c5)n4)c3)c2)C(C)(C)C)cc1` [Compound 114], in experiment [1], the Dmax is above 75%.
